Measurements: ChEMBL document CHEMBL4814079, “Structure-Activity Relationship for the Picolinamide Antibacterials that Selectively Target Clostridioides difficile” (ACS Med Chem Lett, 2021)
Values after ≈ are worked out from the molar mass of the structure shown.

Experiments:
[1] = test system: Clostridioides difficile; assay: Antibacterial activity against Clostridium difficile ATCC 43255 assessed as reduction in bacterial growth measured after 48 hrs by CLSI based broth microdilution method; format: functional
[2] = test system: Staphylococcus aureus; assay: Antibacterial activity against […] Staphylococcus aureus ATCC 29213 assessed as reduction in bacterial growth measured after 48 hrs by CLSI based broth microdilution method; format: functional
[3] = Selectivity index, ratio of MIC of […] Staphylococcus aureus ATCC 29213 to MIC of Clostridium difficile ATCC 43255; format: functional
[4] = test system: Bacteroides fragilis; assay: Antibacterial activity against gut Bacteroides fragilis HM-709 assessed as reduction in bacterial growth measured after 48 hrs by CLSI based broth microdilution method; format: organism-based; details: in vitro
[5] = test system: Bifidobacterium longum; assay: Antibacterial activity against gut Bifidobacterium longum HM-846 assessed as reduction in bacterial growth measured after 48 hrs by CLSI based broth microdilution method; format: organism-based
[6] = test system: Fusobacterium nucleatum; assay: Antibacterial activity against gut Fusobacterium nucleatum HM-992 assessed as reduction in bacterial growth measured after 48 hrs by CLSI based broth microdilution method; format: organism-based; details: in vitro
[7] = Antibacterial activity against gut Limosilactobacillus-reuteri HM-102 assessed as reduction in bacterial growth measured after 48 hrs by CLSI based broth microdilution method
[8] = test system: Lactobacillus gasseri; assay: Antibacterial activity against gut Lactobacillus gasseri HM-664 assessed as reduction in bacterial growth measured after 48 hrs by CLSI based broth microdilution method; format: organism-based; details: in vitro
[9] = test system: Veillonella; assay: Antibacterial activity against gut Veillonella sp HM-49 assessed as reduction in bacterial growth measured after 48 hrs by CLSI based broth microdilution method; format: organism-based; details: in vitro
[10] = test system: Eubacterium sp.; assay: Antibacterial activity against gut Eubacterium sp. HM-178 assessed as reduction in bacterial growth measured after 48 hrs by CLSI based broth microdilution method; format: organism-based
[11] = test system: Corynebacterium; assay: Antibacterial activity against gut Corynebacterium HM-784 assessed as reduction in bacterial growth measured after 48 hrs by CLSI based broth microdilution method; format: organism-based
[12] = Drug excretion in CD1 mouse feces at 20 mg/kg, po measured upto 8 hrs by LC-MS/MS analysis; format: ADME, organism-based; details: in vivo
[13] = Plasma concentration in CD1 mouse at 20 mg/kg, po measured upto 8 hrs by LC-MS/MS analysis; format: ADME, organism-based; details: in vivo, BLD = below limit of detection
[14] = Ratio of drug excretion in CD-1 mouse feces to MIC for antibacterial activity against Clostridium difficile ATCC 43255; format: toxicity; details: in vivo
[15] = test system: HeLa; assay: Cytotoxicity against human HeLa cells assessed as reduction in cell viability incubated for 16 hrs by XTT assay; format: cell-based
[16] = test system: HeLa; assay: Cytotoxicity against human HeLa cells assessed as reduction in cell viability at 64 ug/ml incubated for 16 hrs by XTT assay; format: cell-based; details: dose 64 µg/ml
[17] = test system: Enterococcus faecium; assay: Antibacterial activity against Enterococcus faecium ATCC 19434 assessed as reduction in bacterial growth measured after 48 hrs by CLSI based broth microdilution method; format: functional
[18] = test system: HeLa; assay: Cytotoxicity against human HeLa cells assessed as reduction in cell viability at 128 ug/ml incubated for 16 hrs by XTT assay; format: cell-based; details: dose 128 µg/ml
[19] = test system: HeLa; assay: Cytotoxicity against human HeLa cells assessed as reduction in cell viability at 256 ug/ml incubated for 16 hrs by XTT assay; format: cell-based; details: dose 256 µg/ml

O=C(Nc1ncco1)c1cc(Oc2ccc(SC(F)(F)F)cc2)ccn1
MIC [1]: 1 µg/mL (≈ 2.62 µM)
MIC [2]: ≥ 256 µg/mL
Ratio [3]: > 256

O=C(Nc1ncco1)c1cc(-c2ccc(F)cc2)ccn1
MIC [1]: 1 µg/mL (≈ 3.53 µM)
MIC [2]: 64 µg/mL (≈ 226 µM)
Ratio [3]: 64

O=C(Nc1ncco1)c1cc(-c2ccc(F)c(Cl)c2)ccn1
MIC [1]: 0.25 µg/mL (≈ 0.787 µM)
MIC [2]: 128 µg/mL (≈ 403 µM)
Ratio [3]: 512

O=C(Nc1ncco1)c1cc(-c2cccc(C(F)(F)F)c2)ccn1
MIC [1]: 0.5 µg/mL (≈ 1.5 µM)
MIC [2]: 64 µg/mL (≈ 192 µM)
Ratio [3]: 128

CN[C@H](CC(C)C)C(=O)N[C@H]1C(=O)N[C@@H](CC(N)=O)C(=O)N[C@H]2C(=O)N[C@H]3C(=O)N[C@H](C(=O)N[C@H](C(=O)O)c4cc(O)cc(O)c4-c4cc3ccc4O)[C@H](O)c3ccc(c(Cl)c3)Oc3cc2cc(c3O[C@@H]2O[C@H](CO)[C@@H](O)[C@H](O)[C@H]2O[C@H]2C[C@](C)(N)[C@H](O)[C@H](C)O2)Oc2ccc(cc2Cl)[C@H]1O [VANCOMYCIN]
MIC [4]: 16 µg/mL (≈ 11 µM)
MIC [5]: 0.25 µg/mL (≈ 0.173 µM)
MIC [6]: 0.25 µg/mL (≈ 0.173 µM)
MIC [7]: > 32 µg/mL
MIC [8]: 1 µg/mL (≈ 0.69 µM)
MIC [9]: > 32 µg/mL
MIC [10]: 2 µg/mL (≈ 1.38 µM)

O=C(O)c1ccc2oc(NC(=O)c3cc(Oc4ccc(F)c(F)c4)ccn3)nc2c1 [listing 1 of 2 here]
Ratio [3]: 128

O=C(Nc1ncco1)c1cc(Oc2cccc(OC(F)(F)F)c2)ccn1
MIC [1]: 1 µg/mL (≈ 2.74 µM)
MIC [2]: 64 µg/mL (≈ 175 µM)
MIC [4]: 8 µg/mL (≈ 21.9 µM)
MIC [5]: 16 µg/mL (≈ 43.8 µM)
MIC [11]: > 16 µg/mL
MIC [6]: 8 µg/mL (≈ 21.9 µM)
MIC [7]: 4 µg/mL (≈ 11 µM)
MIC [8]: > 16 µg/mL
MIC [9]: 16 µg/mL (≈ 43.8 µM)
MIC [10]: 8 µg/mL (≈ 21.9 µM)
Ratio [3]: 64
Drug excretion [12]: 49 µg/g
Cp [13]: Bld
Ratio [14]: 49

O=C(O)c1ccc2oc(NC(=O)c3cc(-c4ccc(OC(F)(F)F)cc4)ccn3)nc2c1
IC50 [15]: 79.9 µg/mL
MIC [1]: 0.03 µg/mL (≈ 0.0677 µM)
MIC [2]: 8 µg/mL (≈ 18 µM)
Ratio [3]: 256

O=C(O)c1ccc2oc(NC(=O)c3cc(-c4cccc(OC(F)(F)F)c4)ccn3)nc2c1
IC50 [15]: 124 µg/mL
MIC [1]: 0.03 µg/mL (≈ 0.0677 µM)
MIC [2]: 16 µg/mL (≈ 36.1 µM)
Ratio [3]: 512

O=C(Nc1ncco1)c1ccnc(Oc2ccc(Cl)c(Cl)c2)c1
IC50 [15]: 37 µg/mL

O=C(Nc1ncco1)c1cc(-c2cccc(F)c2)ccn1
MIC [1]: 0.5 µg/mL (≈ 1.77 µM)
MIC [2]: 64 µg/mL (≈ 226 µM)
Ratio [3]: 128
Activity [16]: Non-Toxic

COC(=O)c1ccc2oc(NC(=O)c3cc(Oc4ccc(F)c(F)c4)ccn3)nc2c1
MIC [1]: 0.25 µg/mL (≈ 0.588 µM)
MIC [2]: 64 µg/mL (≈ 150 µM)
Ratio [3]: 256

O=C(O)c1ccc2oc(NC(=O)c3cc(Oc4ccc(F)c(F)c4)ccn3)nc2c1 [listing 2 of 2 here]
MIC [1]: 0.5 µg/mL (≈ 1.22 µM)
MIC [2]: 64 µg/mL (≈ 156 µM)

COc1ccc(Oc2ccnc(C(=O)Nc3ncco3)c2)cc1
MIC [1]: 1 µg/mL (≈ 3.21 µM)
MIC [2]: ≥ 256 µg/mL
Ratio [3]: > 256

O=C(Nc1ncco1)c1cc(-c2ccc(F)c(F)c2)ccn1
MIC [1]: 0.5 µg/mL (≈ 1.66 µM)
MIC [2]: 128 µg/mL (≈ 425 µM)
Ratio [3]: 256
Activity [16]: Non-Toxic

O=C(Nc1ncco1)c1cc(Oc2cccc(F)c2)ccn1
MIC [1]: 1 µg/mL (≈ 3.34 µM)
MIC [2]: ≥ 256 µg/mL
Ratio [3]: > 256
Drug excretion [12]: 2.4 µg/g
Cp [13]: Bld
Ratio [14]: 2.4

O=C(Nc1ncco1)c1cc(-c2cccc(OC(F)(F)F)c2)ccn1
MIC [1]: 0.5 µg/mL (≈ 1.43 µM)
MIC [2]: ≥ 256 µg/mL
Ratio [3]: > 512

O=C(Nc1ncco1)c1cc(Oc2ccc(OC(F)(F)F)cc2)ccn1
MIC [1]: 1 µg/mL (≈ 2.74 µM)
MIC [2]: 128 µg/mL (≈ 350 µM)
Ratio [3]: 128

O=C(Nc1ncco1)c1cc(Oc2ccc(F)c(F)c2)ccn1
MIC [1]: 1 µg/mL (≈ 3.15 µM)
MIC [2]: 64 µg/mL (≈ 202 µM)
Ratio [3]: 64

O=C(Nc1ncco1)c1ccnc(-c2ccc(Cl)c(Cl)c2)c1
IC50 [15]: 79.9 µM
MIC [1]: 0.25 µg/mL (≈ 0.748 µM)
MIC [2]: 25 µg/mL (≈ 74.8 µM)
MIC [17]: 0.06 µg/mL (≈ 0.18 µM)
MIC [4]: 1 µg/mL (≈ 2.99 µM)
MIC [5]: > 16 µg/mL
MIC [11]: 0.5 µg/mL (≈ 1.5 µM)
MIC [6]: 8 µg/mL (≈ 23.9 µM)
MIC [7]: 8 µg/mL (≈ 23.9 µM)
MIC [8]: > 16 µg/mL
MIC [9]: 4 µg/mL (≈ 12 µM)
MIC [10]: > 16 µg/mL
Drug excretion [12]: 2.8 µg/g
Cp [13]: Bld
Ratio [14]: 11

O=C(Nc1ncco1)c1cc(-c2ccc(Cl)cc2)ccn1
MIC [1]: 4 µg/mL (≈ 13.3 µM)
MIC [2]: 128 µg/mL (≈ 427 µM)
Ratio [3]: 32

O=C([O-])c1ccc2oc(NC(=O)c3cc(Oc4ccc(F)c(F)c4)ccn3)nc2c1.[Na+]
MIC [1]: 0.5 µg/mL
MIC [2]: 64 µg/mL
Activity [18]: Non-Toxic
Drug excretion [12]: 3.7 µg/g
Cp [13]: Bld
Ratio [14]: 7.4

CCc1c(Cl)c(O)c(Cl)c(O)c1C(=O)O[C@H]1[C@H](O)[C@H](OC)[C@H](OC/C2=C\C=C\C[C@H](O)/C(C)=C/[C@H](CC)[C@@H](O[C@@H]3OC(C)(C)[C@@H](OC(=O)C(C)C)[C@H](O)[C@@H]3O)/C(C)=C/C(C)=C/C[C@@H]([C@@H](C)O)OC2=O)O[C@@H]1C [FIDAXOMICIN]
MIC [1]: 0.0625 µg/mL (≈ 0.0591 µM)
MIC [4]: > 32 µg/mL
MIC [5]: < 0.01 µg/mL
MIC [11]: < 0.0625 µg/mL
MIC [6]: < 0.0625 µg/mL
MIC [7]: > 32 µg/mL
MIC [8]: 2 µg/mL (≈ 1.89 µM)
MIC [9]: 8 µg/mL (≈ 7.56 µM)
MIC [10]: 16 µg/mL (≈ 15.1 µM)

Cc1ncc([N+](=O)[O-])n1CCO [METRONIDAZOLE]
MIC [4]: 1 µg/mL (≈ 5.84 µM)
MIC [5]: 1 µg/mL (≈ 5.84 µM)
MIC [11]: > 32 µg/mL
MIC [6]: 2 µg/mL (≈ 11.7 µM)
MIC [7]: > 32 µg/mL
MIC [8]: > 32 µg/mL
MIC [9]: 2 µg/mL (≈ 11.7 µM)
MIC [10]: 1 µg/mL (≈ 5.84 µM)

O=C(Nc1ncco1)c1cc(-c2cc(F)cc(F)c2)ccn1
IC50 [15]: 40.1 µg/mL
MIC [1]: 1 µg/mL (≈ 3.32 µM)
MIC [2]: 64 µg/mL (≈ 212 µM)
Ratio [3]: 64

O=C([O-])c1ccc2oc(NC(=O)c3cc(Oc4cccc(OC(F)(F)F)c4)ccn3)nc2c1.[Na+]
MIC [1]: 0.125 µg/mL
MIC [2]: 16 µg/mL
MIC [4]: 4 µg/mL
MIC [5]: 16 µg/mL
MIC [11]: 8 µg/mL
MIC [6]: 4 µg/mL
MIC [7]: 4 µg/mL
MIC [8]: > 16 µg/mL
MIC [9]: 16 µg/mL
MIC [10]: 16 µg/mL
Ratio [3]: 128
Drug excretion [12]: 13 µg/g
Cp [13]: Bld
Ratio [14]: 108

O=C(Nc1ncco1)c1cc(-c2ccc(C(F)(F)F)cc2)ccn1
MIC [1]: 0.25 µg/mL (≈ 0.75 µM)
MIC [2]: 128 µg/mL (≈ 384 µM)
Ratio [3]: 512

O=C(Nc1ncco1)c1cc(-c2ccc(OC(F)(F)F)cc2)ccn1
MIC [1]: 0.25 µg/mL (≈ 0.716 µM)
MIC [2]: 125 µg/mL (≈ 358 µM)
Ratio [3]: 512

O=C(Nc1ncco1)c1cc(-c2ccc(Cl)c(F)c2)ccn1
MIC [1]: 0.25 µg/mL (≈ 0.787 µM)
MIC [2]: 128 µg/mL (≈ 403 µM)
Ratio [3]: 512
Activity [19]: Non-Toxic
